Values joined by “and” are separate entries in the source; they are usually repeats but may differ in a detail not shown here. Identical values can stand only once.
How the values were obtained:
Ad2.1 pre-mRNA splicing = experiment: In vitro splicing (IVS) RT-qPCR, Ad2.1 pre-mRNA, HeLa nuclear extract; format: biochemical; details: payload of the ADC; read-out: qPCR-IVS-AT S Gmean IC50 (nm) Ad2.1 HELA.2
Protocol: HeLa nuclear extract preparation: HeLa S3 cell pellets were resuspended in hypotonic buffer (10 mM HEPES pH 7.9, 1.5 mM MgCl2, 10 mM KCl, 0.2 mM PMSF, 0.5 mM DTT) and the suspension was brought up to a total of 5 packed cell volume (PCV). After centrifugation, the supernatant was discarded, and the cells were brought up to 3 PCV with hypotonic buffer and incubated on ice for 10 min. Cells were lysed using a dounce homogenizer and then centrifuged. […] The nuclei were gently mixed for 30 min before centrifuging. The supernatant (nuclear extract) was then dialyzed into storage buffer (20 mM HEPES pH 7.9, 100 mM KCl, 0.2 mM EDTA, 20% glycerol, 0.2 mM PMSF, 0.5 mM DTT). Protein concentration was determined using NanoDrop 8000 UV-Vis spectrophotometer (ThermoFisher Scientific).
IVS: All Ad2-derived sequences (Pellizzoni et al. (1998) Cell 95(5):615-24) were cloned into pcDNA3.1(+) vector (Promega) using 5′ EcoRI and 3′ Xbal restriction sites. The plasmids were linearized using Xbal and used as DNA templates in in vitro transcription reactions. The FtzΔi intron-less plasmid (Luo and Reed (1999) 96(26):14937-42) was linearized using EcoRI. All RNAs were in vitro transcribed and then purified using MEGAScript T7 (Invitrogen) and MegaClear (Invitrogen) kits, respectively. For splicing reactions using Ad2 variant pre-mRNAs, 1 μL reactions were prepared using 8 μg nuclear extracts prepared from HeLa S3, 2 ng pre-mRNA, 0.2 ng FTZΔi, and varying concentrations of compounds or DMSO. After a 15 min pre-incubation at 30° C., 1 μL splicing activation buffer (0.5 mM ATP, 20 mM creatine phosphate, 1.6 mM MgCl2) was added, and the reactions were incubated for 90 min at 30° C. The reactions were then quenched with 13 μL DMSO, and 25 nL was used for RT-qPCR. RT-qPCR reactions were prepared using TaqMan RNA-to-CT 1-step kit (Life Technologies), RNA from splicing reactions, Ad2 (forward: [sequence]; reverse: [sequence]; probe: [sequence]) and Ftz (forward: [sequence]; reverse: [sequence]; probe: [sequence]) mRNA primer-probe sets. Prism 7 (Graphpad) was used for non-linear regression curve fitting of the formed spliced product and normalized to the control (DMSO) sample.

[1] = Caco-2 permeability of ADC payload; format: in vitro ADME; details: human, Caco-2; payload, B-A/A-B; read-out: Eflux ratio
Protocol: (§1) Integrity of cell monolayer was confirmed by TEER (transepithelial electrical resistance) and Lucifer yellow. Payloads were spiked in duplicate at 10 μM, separately, on both sides of the cell monolayer. Permeability rates from the apical to basolateral (A-B) direction and the basolateral to apical (B-A) direction were determined by sampling aliquots from both chambers immediately after treatment (t=0) and following incubation for 2 hours. Samples were protein precipitated with organic solvent containing internal standard and analyzed by LC-MS/MS (SCIEX; API 5500). The area ratio responses of payload/internal standard over time in both directions were used to generate permeability (cm/see) values. Efflux ratio was calculated by dividing B-A/A-B. Control compounds for low and high permeability and efflux behaved as expected.

Caco-2 cells = experiment: Caco-2 permeability of ADC payload; format: in vitro ADME; details: for Perm. Mean Caco-2 A-B Perm (10e-6 cm/s) / Perm. Mean Caco-2 B-A Perm (10e-6 cm/s): corresponding free payload of the ADC; for Eflux ratio: B-A/A-B; for Permeability Caco-2 A-B (10e-6 cm/s): Table 26, corresponding payload
Protocol: as §1

MCF7 cells = experiment: Cell viability CellTiter-Glo, HER2-negative MCF7; details: unconjugated payload of the ADC
Protocol: HCC1954 (American Type Culture Collection (ATCC)) breast ductal carcinoma cells were plated at 2000 cells/well in flat bottom 96-well tissue culture plates (Corning) in a total volume of 90 μL tissue culture medium supplemented with 10% fetal bovine serum (ThermoFisher Scientific). Cells were treated with a 3-fold serial dilution of compound from 200 nM to 0.03 nM. Each concentration was tested in triplicate. At the time of treatment, a plate of untreated cells was evaluated using CellTiter-Glo®2.0 Luminescent Cell Viability Assay according to the manufacturer's recommendations (Promega; #G9241). CellTiter-Glo® 2.0 reagent was added to the medium, incubated, and assayed on an EnVision Multilabel Reader (PerkinElmer). Values represent time zero (TO). […] Using the luminescence value at time zero (TO), DMSO control growth (C), and test growth in the presence of compound (T144), the percentage growth was calculated at each of the compound concentrations levels. Percentage growth inhibition was calculated as: [(T144-T0)/(C-TO)]×100 for concentrations for which T144>/=TO or [(T144-T0)/T0]×100 for concentrations for which T144<TO. The dose response curve plots were generated using Prism 7 (Graphpad) and fit using nonlinear regression analysis and the log(inhibitor) versus response-variable slope (four parameters).
(§2) HCC1954 (ATCC), 2000 cells/well), N87 (ATCC, 4000 cells/well), SKBR3 (ATCC, 3000 cells/well), and MCF7 (ATCC, 1500 cells/well) cell lines were used.

PC3 cells = experiment: Cell viability, EPHA2-expressing PC3; format: cell-based; details: corresponding payload alone
Protocol: (§3) HCC1954 (American Type Culture Collection (ATCC)) breast ductal carcinoma cells were plated at 2000 cells/well in flat bottom 96-well tissue culture plates (Corning) in a total volume of 90 μL tissue culture medium supplemented with 10% fetal bovine serum (ThermoFisher Scientific). Cells were treated with a 3-fold serial dilution of compound from 200 nM to 0.03 nM. Each concentration was tested in triplicate. At the time of treatment, a plate of untreated cells was evaluated using CellTiter-Glo®2.0 Luminescent Cell Viability Assay according to the manufacturer's recommendations (Promega; #G9241). CellTiter-Glo® 2.0 reagent was added to the medium, incubated, and assayed on an EnVision Multilabel Reader (PerkinElmer). Values represent time zero (TO). […] Percentage growth inhibition was calculated as: [(T144-T0)/(C-TO)]×100 for concentrations for which T144>/=TO or [(T144-T0)/T0]×100 for concentrations for which T144<TO. The dose response curve plots were generated using Prism 7 (Graphpad) and fit using nonlinear regression analysis and the log(inhibitor) versus response-variable slope (four parameters).

N87 cells = experiment: Cell viability CellTiter-Glo, N87; format: cell-based, human; details: unconjugated payload of the ADC
Protocol: as §3, §2

Ad2.2 pre-mRNA splicing = experiment: In vitro splicing (IVS) RT-qPCR, Ad2.2 pre-mRNA, HeLa nuclear extract; format: biochemical; details: payload of the ADC; read-out: qPCR-IVS-AT S GMean IC50 (nM) Ad2.2 HELA.2
Protocol: To evaluate payload activity in a cell-free system, an in vitro splicing assay was performed. The payloads were incubated with nuclear extracts and pre-mRNA substrate minigenes.
HeLa nuclear extract preparation: HeLa S3 cell pellets were resuspended in hypotonic buffer (10 mM HEPES pH 7.9, 1.5 mM MgCl2, 10 mM KCl, 0.2 mM PMSF, 0.5 mM DTT) and the suspension was brought up to a total of 5 packed cell volume (PCV). After centrifugation, the supernatant was discarded, and the cells were brought up to 3 PCV with hypotonic buffer and incubated on ice for 10 min. Cells were lysed using a dounce homogenizer and then centrifuged. […]. The nuclei were gently mixed for 30 min before centrifuging. The supernatant (nuclear extract) was then dialyzed into storage buffer (20 mM HEPES pH 7.9, 100 mM KCl, 0.2 mM EDTA, 20% glycerol, 0.2 mM PMSF, 0.5 mM DTT). Protein concentration was determined using NanoDrop 8000 UV-Vis spectrophotometer (ThermoFisher Scientific).
IVS: All Ad2-derived sequences (Pellizzoni et al. (1998) Cell 95(5):615-24) were cloned into pcDNA3.1(+) vector (Promega) using 5′ EcoRI and 3′ Xbal restriction sites. The plasmids were linearized using Xbal and used as DNA templates in in vitro transcription reactions. The FtzΔi intron-less plasmid (Luo and Reed (1999) 96(26):14937-42) was linearized using EcoRI. All RNAs were in vitro transcribed and then purified using MEGAScript T7 (Invitrogen) and MegaClear (Invitrogen) kits, respectively. For splicing reactions using Ad2 variant pre-mRNAs, 1 μL reactions were prepared using 8 μg nuclear extracts prepared from HeLa S3, 2 ng pre-mRNA, 0.2 ng FTZΔi, and varying concentrations of compounds or DMSO. After a 15 min pre-incubation at 30° C., 1 μL splicing activation buffer (0.5 mM ATP, 20 mM creatine phosphate, 1.6 mM MgCl2) was added, and the reactions were incubated for 90 min at 30° C. The reactions were then quenched with 13 μL DMSO, and 25 nL was used for RT-qPCR. RT-qPCR reactions were prepared using TaqMan RNA-to-CT 1-step kit (Life Technologies), RNA from splicing reactions, Ad2 (forward: […]; reverse: […]; probe: […]) and Ftz (forward: […]; reverse: […]; probe: […]) mRNA primer-probe sets. Prism 7 (Graphpad) was used for non-linear regression curve fitting of the formed spliced product and normalized to the control (DMSO) sample. […] In the presence of payload, a decrease in the amount of spliced product was observed.

HCC1954 cells = experiment: Cell viability CellTiter-Glo, HCC1954; format: cell-based; details: unconjugated payload of the ADC
Protocol: as §3, §2

THP1.1 = experiment: Payload cell potency and lethality CTGlo 72 h, THP1.1; format: cell-based; details: payload
MOLP8 cells = experiment: Cell viability, CD138-expressing MOLP8; format: cell-based; details: for LD50 (nM) (payload) / Rmin (%) (payload): unconjugated payload of the ADC
[2] = Chemical stability of ADC payload, pH 5.5 buffer; details: for pH 5.5 Stability (t1/2, 37C): Table 26, corresponding payload, pH 5.5, 37C
SF3b complex = target: T1, SF3b complex (Homo sapiens, UniProt O75533+Q7RTV0); experiment: SF3B1 binding / scintillation proximity assay (SPA); details: payload of the ADC; read-out: SPA-AT S GMean IC50 (nM) SF381 (WT) HELA.2
T1 construct: The beads were suspended and added to the prepared nuclear extracts
Protocol: A scintillation proximity assay was performed to measure the binding affinity of compounds (“payloads”) to the SF3b complex. Batch immobilization of anti-SF3B1 antibody (MBL) to anti-mouse PVT SPA scintillation beads (PerkinElmer) was prepared as follows: for every 2.5 mg of nuclear extracts, 5 μg of anti-SF3B1 antibody and 1.5 mg of beads were mixed in 150 μL PBS. The antibody-bead mixture was incubated for 30 min at RT and centrifuged at 18,000g for 5 min. 150 μL PBS was used to resuspend every 1.5 mg antibody-bead mixture. The beads were suspended and added to the prepared nuclear extracts. The slurry was incubated for 2 hours at 4° C. with gentle mixing. The beads were then collected by centrifuging at 18,000g for 5 min, and washed twice with PBS+0.1% Triton X-100. After a final centrifugation step, every 1.5 mg of beads was suspended with 150 μL of PBS. […] The mixture was incubated for 30 min, and luminescence signals were read using a MicroBeta2 Plate Counter (PerkinElmer).

[3] = in vivo; cited from earlier work

| Molecule | IC50 (Ad2.1 pre-mRNA splicing) | efflux ratio at 2 h, 10 μM [1] | Payload LD50 (MCF7 cells) | Payload Rmin (%) (MCF7 cells) | Payload LD50 (PC3 cells) | Payload LD50 (N87 cells) | IC50 (Ad2.2 pre-mRNA splicing) | Payload LD50 (HCC1954 cells) | Payload Rmin (%) (HCC1954 cells) | CTGlo-AT S GMean LD50 (nM) 72 h THP1.1 (THP1.1) | LD50 (nM) (payload) (MOLP8 cells) | Rmin (%) (payload) (MOLP8 cells) | Permeability Caco-2 A-B (10e-6 cm/s) (Caco-2 cells) | pH 5.5 Stability (t1/2, 37C) [2] | other results |
| --- | --- | --- | --- | --- | --- | --- | --- | --- | --- | --- | --- | --- | --- | --- | --- |
| CC[C@H](O)[C@@H](C)C1OC1C[C@@](C)(O)/C=C/C=C(\C)[C@H]1OC(=O)C[C@H](O)CC[C@@](C)(OC)[C@@H](OC(=O)N2CCNCC2)/C=C/[C@@H]1C (stereo in doubt) [D1, (2S,3S,6S,7R,10R,E)-10-hydroxy-2-((R,2E,4E)-6-hydroxy-7-((2S,3S)-3-((2R,3S)-3-hydroxypentan-2-yl)oxiran-2-yl)-6-methylhepta-2,4-dien-2-yl)-7-methoxy-3,7-dimethyl-12-oxooxacyclododec-4-en-6-yl piperazine-1-carboxylate] | 17.6 nM | 14.6 | 135.42 nM | −63.414% | >400 nM | >200 nM | 15.9 nM | 5.485 nM | −78.579% and −75.579% | 41.408 nM | 25.712 nM | −100.248% | – | – | Perm. Mean Caco-2 A-B Perm (10e-6 cm/s) (Caco-2 cells): 0.14 10e-6 cm/s; Perm. Mean Caco-2 B-A Perm (10e-6 cm/s) (Caco-2 cells): 2.05 10e-6 cm/s; Eflux ratio (Caco-2 cells; payload): 14.643; GI50 (MOLP8 cells; Homo sapiens, MOLP-8, unconjugated payload of the ADC, read-out: GI50 (nM) (payload)): 6.88 nM |
| CC[C@H](O)[C@@H](C)C1OC1C[C@@](C)(O)/C=C/C=C(\C)[C@H]1OC(=O)C[C@H](O)CC[C@@](C)(OC(C)=O)[C@@H](OC(=O)N2CCNCC2)/C=C/[C@@H]1C (stereo in doubt) [D4, (2S,3S,6S,7R,10R,E)-7-acetoxy-10-hydroxy-2-((R,2E,4E)-6-hydroxy-7-((2S,3S)-3-((2R,3S)-3-hydroxypentan-2-yl)oxiran-2-yl)-6-methylhepta-2,4-dien-2-yl)-3,7-dimethyl-12-oxooxacyclododec-4-en-6-yl piperazine-1-carboxylate] | 20.9 nM | – | 96.46 nM | −60.923% | >400 nM | 38.774 nM | 17.3 nM | 6.374 nM | −81.34% | 33.329 nM | 12.99 nM | −101.935% | 0.1 10e-6 cm/s | 4.5 | Perm. Mean Caco-2 A-B Perm (10e-6 cm/s) (Caco-2 cells): 0.1 10e-6 cm/s; Perm. Mean Caco-2 B-A Perm (10e-6 cm/s) (Caco-2 cells): 1.79 10e-6 cm/s; Eflux ratio (Caco-2 cells; payload): 17.9 |
| CC[C@H](O)[C@@H](C)[C@H]1O[C@@H]1C[C@@](C)(O)/C=C/C=C(\C)[C@H]1OC(=O)C[C@H](O)CC[C@@](C)(OC)[C@@H](OC(=O)N2CCN(C)CC2)/C=C/[C@@H]1C [D2, (2S,3S,6S,7R,10R,E)-10-hydroxy-2-((R,2E,4E)-6-hydroxy-7-((2R,3R)-3-((2R,3S)-3-hydroxypentan-2-yl)oxiran-2-yl)-6-methylhepta-2,4-dien-2-yl)-7-methoxy-3,7-dimethyl-12-oxooxacyclododec-4-en-6-yl 4-methylpiperazine-1-carboxylate] | 19.1 nM and 19.3 nM | 22.8 | 30.318 nM | −66.915% | >400 nM | >200 nM | 15.3 nM | 2.758 nM | −78.732% | 11.708 nM | 5.035 nM | −100.198% | 0.6 10e-6 cm/s | 4 | Eflux ratio (Caco-2 cells; payload): 22.756 |
| CC(=O)N1CCC(n2nnc3c(F)cc(/C=C(\C)[C@H]4OC(=O)C[C@H](O)CC[C@H](C)[C@@H](OC(=O)N5CCN(C)CC5)/C=C/[C@@H]4C)cc32)CC1 [D15] | 4.63 nM | – | 130.398 nM | −68.503% | >400 nM | – | 4.93 nM | – | – | 11.038 nM | 9.178 nM | −100.198% | 3.4 10e-6 cm/s | 7 | – |
| C/C(=C\c1cc(F)cc(N2CCN(C(=O)Cn3cccn3)CC2)c1)[C@H]1OC(=O)C[C@H](O)CC[C@H](C)[C@@H](OC(=O)N2CCNCC2)/C=C/[C@@H]1C [D16] | 16 nM | 32.4 | – | – | – | >200 nM | 15.1 nM | 2.037 nM | −84.412% | 21.46 nM | – | – | 0.72 10e-6 cm/s | 7 | GI50 (N87 cells; Homo sapiens): 0.41 nM; GI50 (HCC1954 cells; Homo sapiens): 0.358 nM |
| C/C(=C\c1cc(F)cc(N2CCOCC2)c1)[C@H]1OC(=O)C[C@H](O)CC[C@H](C)[C@@H](OC(=O)N2CCN(C)CC2)/C=C/[C@@H]1C [D17] | 17.9 nM | 0.896 | – | – | – | – | 9.44 nM | – | – | 24.908 nM | – | – | 20 10e-6 cm/s | 7 | – |
| CC[C@H](O)[C@@H](C)[C@H]1O[C@@H]1C[C@H](C)/C=C/C=C(\C)[C@H]1OC(=O)C[C@H](O)CC[C@@](C)(OC)[C@@H](OC(=O)N2CCN(C)CC2)/C=C/[C@@H]1C [D19, (2S,3S,6S,7R,10R,E)-10-hydroxy-2-((S,2E,4E)-7-((2R,3R)-3-((2R,3S)-3-hydroxypentan-2-yl)oxiran-2-yl)-6-methylhepta-2,4-dien-2-yl)-7-methoxy-3,7-dimethyl-12-oxooxacyclododec-4-en-6-yl 4-methylpiperazine-1-carboxylate] | – | – | – | – | – | – | – | – | – | – | 4.58 nM | −62.2% | 16 10e-6 cm/s | 0.8 | – |
| C/C(=C\c1cccc(S(=O)(=O)N2CCCC2)c1)[C@H]1OC(=O)C[C@H](O)CC[C@H](C)[C@@H](OC(=O)N2CCN(C)CC2)/C=C/[C@@H]1C [D34] | – | – | – | – | – | – | – | – | – | – | – | – | 26 10e-6 cm/s | 7 | – |
| COc1cc2cc(c1Cl)N(C)C(=O)C[C@H](OC(=O)[C@H](C)N(C)C(=O)CCS)[C@]1(C)O[C@H]1[C@H](C)[C@@H]1C[C@@](O)(NC(=O)O1)[C@H](OC)/C=C/C=C(\C)C2 [DM1, reference compound] | > 25000 nM | – | – | – | – | – | > 25000 nM | – | – | 3.287 nM | – | – | – | – | Permeability Mean Caco-2 A-B Perm (10e-6 cm/s) (Caco-2 cells; payload, 10 μM, 2 hours, apical to basolateral): 0.38 10e-6 cm/s; Permeability Mean Caco-2 B-A Perm (10e-Gcm/s) (Caco-2 cells; payload, 10 μM, 2 hours, basolateral to apical): 28.6 10e-Gcm/s; IC50 (SF3b complex): > 1200 nM; Stability Mean Stability t1/2 pH5.5 (d) ([2]; payload, 20 μM, pH 5.5 buffer, 37° C.): 1.3 d; CTGlo-AT S Mean MinResponse % 72 h THP1.1 (THP1.1): −93.785% |
| ipilimumab | – | – | – | – | – | – | – | – | – | – | – | – | – | – | plasma half-life [3]: 12 to 14 days |
| tremelimumab | – | – | – | – | – | – | – | – | – | – | – | – | – | – | plasma half-life [3]: approximately 22 days |
